One series has as its target T1, Kir2.1 (Homo sapiens, UniProt P63252).
T1 construct: expressed in transfected cells
T1 sequence (P63252 1-427): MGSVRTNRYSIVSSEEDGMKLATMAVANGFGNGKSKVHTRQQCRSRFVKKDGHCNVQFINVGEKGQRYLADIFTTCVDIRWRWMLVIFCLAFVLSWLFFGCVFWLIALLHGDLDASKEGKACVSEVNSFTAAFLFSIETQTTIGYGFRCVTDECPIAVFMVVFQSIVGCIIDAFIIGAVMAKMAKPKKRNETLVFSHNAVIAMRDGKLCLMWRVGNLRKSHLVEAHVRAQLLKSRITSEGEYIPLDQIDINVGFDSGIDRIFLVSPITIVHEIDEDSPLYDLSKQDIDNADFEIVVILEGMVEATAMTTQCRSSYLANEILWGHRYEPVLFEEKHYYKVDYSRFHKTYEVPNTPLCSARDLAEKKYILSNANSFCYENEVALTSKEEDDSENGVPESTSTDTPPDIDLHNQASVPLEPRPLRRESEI
The experiment in a line: Thallium flux selectivity assay Kir2.1. It counts as cell-based. As for the experimental part:
Quantitative thallium flux assays of Kir6.1/SUR2B activity were performed essentially as described previously for Kir6.2/SUR1 ([Raphemot et al., 2014]; [Kharade et al., 2019]). Stable T-Rex-HEK293-Kir6.1/SUR2B cells or transiently transfected HEK293T cells were plated in polyamine-coated, clear-bottomed, black-walled 384-well plates and were cultured (37°C/5% CO2) overnight in Dulbecco’s modified Eagle’s medium (Gibco, Carlsbad, CA, 11995-065) containing 10% FBS (2 mM Penicillin-Streptomycin). The following day, cells were washed with assay buffer (i.e., Hanks’ balanced salt solution/20 mM HEPES) and loaded for 1 hour with thallium sensor dye Brilliant Thallium (Ion Bioscience, San Marcos, TX) at room temperature. Dye-loaded cells were washed with assay buffer and transferred to a Panoptic Kinetic Imaging Plate Reader (Wavefront Bioscience, Franklin, TN). Control and test compound treatments were for 4 minutes prior to adding 0.5 mM chloride-free thallium stimulus buffer (Ion Bioscience) to initiate thallium flux. […] Selectivity assays against other Kir channels were performed essentially as described previously ([Kharade et al., 2018]; [McClenahan et al., 2022]).

A short description of series [1]: Rat intravenous pharmacokinetics. Format: in vivo. To be noted: for MRT: iv. As for the experimental part:
All animal housing and experimental procedures were approved by the Vanderbilt University Animal Care and Use committee and followed the guidelines set forth by the Guide for the Care and Use of Laboratory Animals. VU0542270 was formulated as a solution in ethanol, PEG400, and saline (1:4:5 v/v, respectively) at a concentration of 1 mg/mL and administered as a single 1-mg/kg IV dose (1 mL/kg) to male Sprague Dawley rats (n = 2; between 366–418 g body weights) via injection into a surgically implanted jugular vein catheter. Blood samples were collected serially from a surgically implanted carotid artery catheter in each animal over multiple postadministration time points (0.033, 0.117, 0.25, 0.5, 1, 2, 4, 7, and 24 hours) into chilled K2EDTA anticoagulant-fortified tubes and immediately placed on wet ice. The blood samples were then centrifuged [1700 relative centrifugal force (rcf), 5 minutes, 4°C] to obtain plasma samples, which were stored at −80°C until analysis by liquid chromatography tandem mass spectrometry (LC-MS/MS). The intravenous pharmacokinetic (PK) data were used for the calculation of relevant intravenous pharmacokinetic parameters [plasma clearance (CLp), volume of steady state, elimination half-life (t1/2), and mean residence time]. In vivo pharmacokinetic parameters of VU0542270 were determined from the observed individual animal time-versus-concentration data using noncompartmental analysis via WinNonlin (WNL; v.5.3, Pharsight Corp., Mountain View, CA.).
Plasma samples from the in-life phases of the studies were thawed at ambient temperature (benchtop), and then aliquots (20 µL per sample) were transferred to a 96-shallow-well (V-bottom) plate. Matrix-matched quality-control samples and a standard curve of VU0542270 (1 mg/mL DMSO stock solution) were prepared in blank rat plasma (K2EDTA treated) or blank brain homogenate via serial dilution and transferred (20 µL each) to the plate along with multiple blank plasma and brain homogenate samples. Acetonitrile (120 µL) containing internal standard (50 nM carbamazepine) was added to each well of the plate to precipitate protein. The plate was then centrifuged (4000 rcf, 5 minutes, ambient temperature), and resulting supernatants (60 µL each) were transferred to a new 96-shallow-well (V-bottom) plate containing an equal volume (60 µL per well) of water (Milli-Q purified). The plate was then sealed in preparation for LC-MS/MS analysis (see below).
Prepared samples were injected (10 µL each) onto an AB Sciex triple quad-4500 mass spectrometer system with an Agilent 1290 Infinity Binary Pump and multisampler. Analytes were separated on a reverse phase column Phenomenex Kinetex C18 (50 × 2.1 mm, 5 µm) that was thermostated at 40°C. High-pressure liquid chromatography mobile phase A was 0.5% formic acid in water (pH unadjusted); mobile phase B was 0.5% formic acid in acetonitrile (pH unadjusted). […] The column was re-equilibrated (1 minute) before the next sample injection. The total run time was 2.55 minutes, and the high-pressure liquid chromatography flow rate was 0.5 ml/min. The source temperature was set at 500°C, and mass spectral analyses were performed using a Turbo-Ion spray source in positive ionization mode (5.0-kV spray voltage) and using multiple-reaction monitoring of transitions specific for both analyte (m/z 335.7–236.7 at 35 eV) and internal standard (m/z 237.0–193.9 at 25 eV). Quantitation of VU0542270 was performed via AB Sciex Analyst software using the raw analyte:IS peak area ratios. The typical detection range for VU0542270 was 0.5 ng/mL to ≥5000 ng/mL, utilizing a quadratic equation regression with 1/x^2 weighting.

SMILES strings stand for the structures.

As a reminder, the IC50 is the concentration at which inhibition is half-maximal. Lower therefore signals greater potency in that assay. The half-life is the time needed for the level to fall by half in the phase considered. Read a low half-life as rapid decline. Usually MRT stands for the average time that molecules of a dose stay in the body. On Kir2.1, `Cc1nc(-c2cccs2)sc1CNC(=O)Nc1cccs1` [VU0542270] yielded an IC50 greater than 30 µM. The compound also gave a half-life in series [1] (male, Sprague Dawley, plasma, 1 mg/kg, rat IV PK) of 38.4 min. Besides, the clearance in series [1] (male, Sprague Dawley, plasma, rat, 1 mg/kg IV, read-out: CLp) was found to be 17.7 mL/min/kg. Besides, in series [1] (male, Sprague Dawley, plasma, rat, 1 mg/kg IV, read-out: Vss), the Vd was found to be 0.2 L/kg. The MRT in series [1] (male, Sprague Dawley, rat, plasma, 1 mg/kg, 1 mg/kg IV) is 11.4 min; in series [1] (male, Sprague Dawley, rat, plasma, 1 mg/kg, rat IV PK), 10.2 min. Moreover, in series [1] (rat, 1 mg/kg IV), the t1/2 came out at 38.4 min.

The values above are taken from article PMC10877733, “Discovery and Characterization of VU0542270, the First Selective Inhibitor of Vascular Kir6.1/SUR2B KATP Channels” (Molecular Pharmacology, 2024).
